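Tested at 5 concentrations; 48 h exposure; 96-well plates; endpoints linearly interpolated, else capped at highest concentration. Definition used: TGI = concentration required for complete inhibition of growth.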
Experiments:
Assay in all cases: DTP human tumour cell line panel, 48 h
[1] = test system: SK-MEL-5 melanoma
[2] = test system: RPMI-8226 leukemia
[3] = test system: MOLT-4 leukemia
[4] = test system: HL-60(TB) leukemia
[5] = test system: UACC-257 melanoma
[6] = test system: XF 498 CNS
[7] = test system: RXF-631 renal
[8] = test system: A498 renal
[9] = test system: KM20L2 colon
[10] = test system: CAKI-1 renal
[11] = test system: DMS 114 small cell lung
[12] = test system: UO-31 renal
[13] = test system: SF-295 CNS
[14] = test system: NCI-H460 lung
[15] = test system: HCC-2998 colon
[16] = test system: KM12 colon
[17] = test system: NCI-H23 lung
[18] = test system: K-562 leukemia
[19] = test system: OVCAR-8 ovarian
[20] = test system: SNB-75 CNS
[21] = test system: EKVX NSCLC
[22] = test system: IGROV1 ovarian
[23] = test system: MALME-3M melanoma
[24] = test system: HCT-116 colon
[25] = test system: DLD-1 colon
[26] = test system: HT29 colon
[27] = test system: SK-MEL-2 melanoma
[28] = test system: U251 CNS
[29] = test system: SR leukemia
[30] = test system: M14 melanoma
[31] = test system: SN12C renal
[32] = test system: SF-539 CNS
[33] = test system: CCRF-CEM leukemia
[34] = test system: SK-MEL-28 melanoma
[35] = test system: A549 NSCLC
[36] = test system: OVCAR-4 ovarian
[37] = test system: LOX IMVI melanoma
[38] = test system: LXFL 529 NSCLC
[39] = test system: DMS 273 small cell lung
[40] = test system: COLO 205 colon
[41] = test system: OVCAR-5 ovarian
[42] = test system: HOP-92 NSCLC
[43] = test system: OVCAR-3 ovarian
[44] = test system: SNB-78 CNS
[45] = test system: SW-620 colon
[46] = test system: ACHN renal
[47] = test system: HOP-18 NSCLC
[48] = test system: NCI-H522 lung
[49] = test system: NCI-H226 lung
[50] = test system: SNB-19 CNS
[51] = test system: HCT-15 colon
[52] = test system: TK-10 renal
[53] = test system: SK-OV-3 ovarian
[54] = test system: SF-268 CNS
[55] = test system: 786-0 renal
[56] = test system: HOP-62 NSCLC
[57] = test system: UACC-62 melanoma
[58] = test system: RXF 393 renal
[59] = test system: M19-MEL melanoma

CSc1ccc(-c2cn3ccsc3n2)c(O)c1
TGI [1]: > 100 µM
TGI [2]: > 65 µM
TGI [3]: > 100 µM
TGI [4]: > 63.1 µM
TGI [5]: > 100 µM
TGI [6]: > 100 µM
TGI [7]: > 100 µM
TGI [8]: > 100 µM
TGI [9]: > 100 µM
TGI [10]: > 100 µM
TGI [11]: > 60.9 µM
TGI [12]: > 100 µM
TGI [13]: > 100 µM
TGI [14]: > 87.4 µM
TGI [15]: > 100 µM
TGI [16]: > 100 µM
TGI [17]: > 100 µM
TGI [18]: > 60.2 µM
TGI [19]: > 100 µM
TGI [20]: > 94.7 µM
TGI [21]: > 100 µM
TGI [22]: > 100 µM
TGI [23]: > 100 µM
TGI [24]: > 67.3 µM
TGI [25]: > 100 µM
TGI [26]: > 100 µM
TGI [27]: > 100 µM
TGI [28]: > 100 µM
TGI [29]: 88.3 µM
TGI [30]: > 100 µM
TGI [31]: > 100 µM
TGI [32]: > 57.3 µM
TGI [33]: > 60.9 µM
TGI [34]: > 100 µM
TGI [35]: > 100 µM
TGI [36]: 98.7 µM
TGI [37]: > 56.5 µM
TGI [38]: > 82.2 µM
TGI [39]: > 100 µM
TGI [40]: > 62.7 µM
TGI [41]: > 100 µM
TGI [42]: > 100 µM
TGI [43]: > 100 µM
TGI [44]: > 100 µM
TGI [45]: > 55.1 µM
TGI [46]: > 100 µM
TGI [47]: > 100 µM
TGI [48]: > 100 µM
TGI [49]: > 100 µM
TGI [50]: > 100 µM
TGI [51]: > 55.8 µM
TGI [52]: > 100 µM
TGI [53]: > 100 µM
TGI [54]: > 100 µM
TGI [55]: 43.3 µM
TGI [56]: > 100 µM
TGI [57]: > 100 µM

CC(N)Cc1cccc(C(F)(F)F)c1 (configuration not stated)
TGI [1]: > 100 µM
TGI [2]: > 100 µM
TGI [4]: > 100 µM
TGI [5]: > 100 µM
TGI [7]: > 100 µM
TGI [8]: > 100 µM
TGI [9]: > 100 µM
TGI [10]: > 100 µM
TGI [11]: > 100 µM
TGI [12]: > 100 µM
TGI [13]: > 100 µM
TGI [58]: > 100 µM
TGI [14]: > 100 µM
TGI [15]: > 100 µM
TGI [16]: > 100 µM
TGI [17]: > 100 µM
TGI [18]: > 100 µM
TGI [19]: > 100 µM
TGI [20]: > 100 µM
TGI [21]: > 100 µM
TGI [22]: > 100 µM
TGI [23]: > 100 µM
TGI [24]: > 100 µM
TGI [25]: > 100 µM
TGI [59]: > 100 µM
TGI [26]: > 100 µM
TGI [27]: > 100 µM
TGI [28]: > 100 µM
TGI [29]: > 100 µM
TGI [30]: > 100 µM
TGI [31]: > 100 µM
TGI [32]: > 100 µM
TGI [33]: > 100 µM
TGI [34]: > 100 µM
TGI [35]: > 100 µM
TGI [36]: > 100 µM
TGI [37]: > 100 µM
TGI [38]: > 100 µM
TGI [39]: > 100 µM
TGI [40]: > 100 µM
TGI [41]: > 100 µM
TGI [42]: > 100 µM
TGI [43]: > 100 µM
TGI [44]: > 100 µM
TGI [45]: > 100 µM
TGI [46]: > 100 µM
TGI [47]: > 100 µM
TGI [48]: > 100 µM
TGI [49]: > 100 µM
TGI [50]: > 100 µM
TGI [51]: > 100 µM
TGI [52]: > 100 µM
TGI [53]: > 100 µM
TGI [54]: > 100 µM
TGI [55]: > 100 µM
TGI [56]: > 100 µM
TGI [57]: > 100 µM

CCc1ccccc1NC(=O)/C(CC(=O)c1c(C)n([O-])c2ccccc2[n+]1=O)=N\NS(=O)(=O)c1ccc(C)cc1
TGI [2]: 40 µM
TGI [3]: 42.6 µM
TGI [4]: 41.6 µM
TGI [5]: 82.1 µM
TGI [7]: > 100 µM
TGI [8]: > 100 µM
TGI [9]: > 100 µM
TGI [11]: 30.3 µM
TGI [12]: > 100 µM
TGI [13]: > 100 µM
TGI [58]: > 100 µM
TGI [14]: > 100 µM
TGI [15]: > 100 µM
TGI [16]: > 100 µM
TGI [17]: > 100 µM
TGI [18]: > 100 µM
TGI [19]: > 100 µM
TGI [20]: > 100 µM
TGI [21]: > 100 µM
TGI [22]: > 100 µM
TGI [23]: > 100 µM
TGI [24]: 55.3 µM
TGI [25]: > 100 µM
TGI [59]: 46.7 µM
TGI [26]: > 100 µM
TGI [27]: > 100 µM
TGI [28]: > 100 µM
TGI [29]: 42.8 µM
TGI [30]: > 100 µM
TGI [31]: > 100 µM
TGI [32]: > 100 µM
TGI [33]: 52.6 µM
TGI [34]: > 100 µM
TGI [35]: > 100 µM
TGI [36]: 90.4 µM
TGI [38]: > 100 µM
TGI [39]: > 100 µM
TGI [40]: > 100 µM
TGI [41]: > 100 µM
TGI [43]: 80.2 µM
TGI [44]: > 100 µM
TGI [45]: > 100 µM
TGI [46]: > 100 µM
TGI [48]: 47.1 µM
TGI [49]: > 100 µM
TGI [50]: > 100 µM
TGI [51]: > 100 µM
TGI [52]: > 100 µM
TGI [53]: > 100 µM
TGI [54]: > 100 µM
TGI [55]: > 100 µM
TGI [56]: > 100 µM
TGI [57]: 67 µM

C=C(C)C1CC=C(C(=O)O)CC1 (configuration not stated)
TGI [1]: 1450 µM
TGI [3]: > 5000 µM
TGI [4]: 2630 µM
TGI [5]: 3450 µM
TGI [7]: 1620 µM
TGI [8]: 4420 µM
TGI [9]: > 5000 µM
TGI [10]: 4080 µM
TGI [11]: > 5000 µM
TGI [12]: 4030 µM
TGI [13]: > 5000 µM
TGI [58]: 3110 µM
TGI [14]: 3950 µM
TGI [15]: 2340 µM
TGI [16]: 2140 µM
TGI [17]: 2200 µM
TGI [18]: > 5000 µM
TGI [19]: > 5000 µM
TGI [20]: 3780 µM
TGI [21]: > 5000 µM
TGI [22]: 1480 µM
TGI [23]: 1630 µM
TGI [24]: 1500 µM
TGI [25]: > 5000 µM
TGI [59]: 2970 µM
TGI [26]: > 5000 µM
TGI [27]: 3220 µM
TGI [28]: 2630 µM
TGI [29]: 4650 µM
TGI [30]: > 5000 µM
TGI [31]: > 5000 µM
TGI [32]: 2510 µM
TGI [33]: 2770 µM
TGI [34]: 2640 µM
TGI [35]: 3470 µM
TGI [36]: > 5000 µM
TGI [37]: 3440 µM
TGI [38]: > 5000 µM
TGI [39]: > 5000 µM
TGI [40]: 1620 µM
TGI [41]: > 5000 µM
TGI [42]: 3930 µM
TGI [43]: 1660 µM
TGI [45]: > 5000 µM
TGI [46]: > 5000 µM
TGI [48]: 1830 µM
TGI [49]: 2590 µM
TGI [50]: 4330 µM
TGI [51]: 1670 µM
TGI [52]: > 5000 µM
TGI [53]: > 5000 µM
TGI [54]: 4060 µM
TGI [55]: 4700 µM
TGI [56]: 1770 µM
TGI [57]: 1450 µM
